Results reported in patent US6447801B1, “Anti-parasitic action of N,N-diethyl-m-toluamide (deet) and formulations that prolong its activity in the skin” (priority 1997, dated 2002).

Assays:
[1] = Disposition of 14C-DEET and 14C-Lipodeet after skin application (skin, blood, urine, bedding radioactivity)
Procedure: In this series of experiments, 11.472 mg of ^14C-DEET of ^14C-Lipodeet (in 100 μl) was applied to 5 cm^2 area of the mice abdominal skin. At different time points (15 min, 30 min, 60 min, 2 hrs., 4 hrs., 24 hrs., 48 hrs. and 72 hrs.) after application, the whole area of skin where the lipodeet had been applied was collected, underlying tissue removed and the radioactivity measured in a Beckman β-counter. Samples of blood and urine were also collected at these time points from each mouse to measure the radioactivity (n=10 for each time point). […] In this study, we made observations only up to 72 hrs. […] There are two possibilities, (1) substantial quantities of both DEET and Lipodeet are absorbed systemically through the skin within 24 hrs., or (2) both the chemicals are lost in the bedding due to direct contact of the applied area to the bedding materials. The first hypothesis was tested by measuring ^14C levels in the blood and urine in these animals.

Aedes aegypti = assay: Laboratory evaluation as mosquito repellant on human volunteers; assay type: in vivo; conditions: 10% or 30%; human forearm
Procedure: However, one of the major uses of DEET is against mosquitoes. Therefore, we wanted to test whether Lipodeet prolongs the mosquito repellency activity of DEET. These experiments were conducted on human volunteers at the Illinois Natural History Survey Center for Economic Entomology, University of Illinois Urbana-Champaign. […] The test solutions were applied to 8.5 cm area (1.76 μl/cm^2) on the forearm of the subjects and the duration of repellency against the mosquitoes was evaluated over a period of 24 hrs. No treatment was applied to the other forearm and this remained as controls. Paper cups (1 pint) screened at one end with a fine mesh and closed at the other end was used as test cages in this study. […] Five minutes after application of the samples were treated as time 0. After the exposure, mosquitoes were removed and the number that were blooded were counted. Values were expressed as follows: [formula]

cercariae of S. mansoni = assay: Wash-off tests with DEET and Lipodeet in schistosomiasis (mice); assay type: in vivo, Schistosoma mansoni
Procedure: After bathing, mice were allowed to dry completely. The abdominal skin of these mice was then exposed to 150 cercariae of S. mansoni labeled with ^35S-methionine. Degree of protection conferred by Lipodeet and DEET after the wash off treatment was evaluated by monitoring the entry of parasites into the skin by compressed organ autoradiography techniques as described earlier (Li et. al. Parasitology International 46:55-65, 1997).

Amblyoma americanum = assay: Tick attachment to rabbit ear, Amblyoma americanum; assay type: in vivo
Procedure: To determine the effect of DEET on tick attachment and feeding we used two species of ticks Amblyoma americanum and Dermacetor variabilis purchased from University of Oklahoma. Ticks were allowed to feed on the ears of male New Zealand white rabbits purchased from Charles River. For feeding, five ticks were introduced into a 60 μm sieve cell well (Fisher Scientific) which was attached to the ear of the rabbit with nail glue. Ticks were observed every 30 minutes for the first eight hours to assess skin attachment and feeding behavior. Tick attachment was defined as the minimum time required for 3 of the 5 ticks to attach to the ear. […] The observation was continued for 72 hours for both species of ticks. Separate rabbits were used for each species and for each treatment. […] All the ticks in this study were active until attachment.
In this series of experiments, the protective effect(s) of different concentrations of DEET and Lipodeet on the attachment of nymphs and adults of two species of ticks, A. americanum and D. variabilis, to the rabbit ear was evaluated. Experiments were set up wherein different concentrations (20% or 40% of DEET or Lipodeet were applied (0.2 ml of the samples to 10 cm^2 surface area), onto the dorsal side of the ear lobes of a rabbit. After allowing the preparation to dry for 30 min., sieve cups (Fisher Scientific, 1″ inner diameter) were then attached to the ear lobes using nail glue. Ten nymphs or five adult ticks were then introduced into the sieve cups every 24 hrs through a small slit made on the sieve membrane. Attachment of ticks to the skin was monitored every 24 hrs. for up to 72 hrs. after introduction of the ticks.
More than 60% of ticks used in our experiments were dead after contact with Lipodeet. Although a well-aerated sieve cup was used (1″ inner diameter), we initially thought that the tick mortality may be due to possible DEET vapor trapped within the sieve cup. Therefore, we designed experiments where one half of the surface area of skin within the sieve cup was treated with 40% Lipodeet and the other half was left untreated. Five adults ticks of A. americanum were then introduced into the sieve cups every 24 hrs. After 72 hrs., the sieve cups were removed.

## CCN(CC)C(=O)c1cccc(C)c1 [DEET, N,N-diethyl-m-toluamide]
[1]; 11.472 mg on 5 cm^2, by 24 hrs
  amount in the superficial layers of the skin: nearly all of the DEET applied to the skin has been cleared from the superficial layers
[1]; during 4 to 24 hrs after application
  lost from the skin: 100%
Aedes aegypti
  duration of mosquito repellent effect: completely lost by six hours
Cercariae of S. mansoni; 10%, five minutes of exposure to water, irrespective of water temperature
  protective effect after wash-off: significantly (p<0.01) abolished the protective effects of DEET
Cercariae of S. mansoni; concentration increased to 20%
  protective effect after wash-off: slightly improved the retention of protective ability of DEET
Amblyoma americanum; 10% DEET on rabbit ear, normal rabbits 20 hours
  initial time with no tick attachment: 22.0 h
Amblyoma americanum; 20%, adults, by 48 hrs (2/10)
  adult ticks attached: 20%
Amblyoma americanum; 20%, adults, by 72 hrs (6/15)
  adult ticks attached: 40%
Amblyoma americanum; 20%, adults, up to 24 hrs
  prevention of adult tick attachment: prevented tick attachment
Amblyoma americanum; 20%, from 24 to 72 hrs, untreated 40% attached
  reduction of attachment of A. americanum nymphs to rabbit ear: 50%
Amblyoma americanum; 40%, adult A. americanum, after 72 hrs
  site of tick attachment, half of the skin in the sieve cup treated: ticks were seen attached to both treated and untreated surfaces
Amblyoma americanum; 40%, adults, at 48 hrs (1/10)
  adult ticks attached: 10%
Amblyoma americanum; 40%, adults, by 72 hrs (3/15)
  adult ticks attached: 20%
Amblyoma americanum; 40%, nymphs, by 48 hrs
  ticks attached to the skin: 20%
Amblyoma americanum; 40%, nymphs, up to 24 hrs
  prevention of tick attachment: completely prevented tick attachment to the skin
